Experimental findings from patent US11453703B2, “Heterotandem bicyclic peptide complexes” (BicycleTX Limited, priority 2018, dated 2022) are described below.

Usually EC50 stands for the concentration that produces a half-maximal response. A higher EC50 goes with a less potent agent. In general, Kd refers to a measure of binding affinity in units of concentration. Low values mean tighter binding, high ones weaker binding.

In data set [1] the target is T1, CD137 (Homo sapiens, UniProt Q07011). The data set is described as follows: CD137 reporter assay, co-culture with EphA2 tumour cells. More on the design: host or cells: Jurkat reporter cells. Type of data set: cell-based. The note with it: tumour target EphA2, co-culture with SC-OV-3, 6 h. In a few lines:
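Jurkat CD137 reporter cells co-cultured with tumour cells and serially diluted test articles in RPMI-1640 + 1% FBS, 6 h at 37 °C, 5% CO2. Luminescence read after Bio-Glo; fold change over cells-only background fitted log(agonist) vs response for EC50 (nM) and maximal fold induction.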
(Reporter assays use an easily measured gene product as a stand-in for the process of interest.)

The target in data set [2] is T1, CD137. Put plainly: CD137 Biacore (SPR) binding assay. The note with it: biotinylated human CD137, 25° C. Details: purchased R&D systems. In a few lines:
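Biotinylated human CD137 captured (270-1500 RU) on streptavidin-coupled dextran chip; peptides up to 500 nM in PBS/0.05% Tween 20, 0.5% DMSO, at 25°C, 60 s association, 900 s dissociation. Double-referenced data fitted to 1:1 binding model, with mass transport where appropriate.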

For data set [3], the target named is human EphA2 protein (Homo sapiens, UniProt P29317). Put plainly: EphA2 Biacore (SPR) binding assay. The note with it: biotinylated human EphA2, 25° C. As for the experimental part: Biacore experiments were performed to determine ka (M^−1s^−1), kd (s^−1), KD (nM) values of heterotandem peptides binding to human EphA2 protein.
EphA2 were biotinylated with EZ-Link™ Sulfo-NHS-LC-Biotin for 1 hour in 4 mM sodium acetate, 100 mM NaCl, pH 5.4 with a 3× molar excess of biotin over protein. The degree of labelling was determined using a Fluorescence Biotin Quantification Kit (Thermo) after dialysis of the reaction mixture into PBS. For analysis of peptide binding, a Biacore T200 instrument was used with a XanTec CMD500D chip. Streptavidin was immobilized on the chip using standard amine-coupling chemistry at 25° C. with HBS-N (10 mM HEPES, 0.15 M NaCl, pH 7.4) as the running buffer. Briefly, the carboxymethyl dextran surface was activated with a 7 min injection of a 1:1 ratio of 0.4 M 1-ethyl-3-(3-dimethylaminopropyl) carbodiimide hydrochloride (EDC)/0.1 M N-hydroxy succinimide (NHS) at a flow rate of 10 it/min. For capture of streptavidin, the protein was diluted to 0.2 mg/ml in 10 mM sodium acetate (pH 4.5) and captured by injecting 120 μl onto the activated chip surface. Residual activated groups were blocked with a 7 min injection of 1 M ethanolamine (pH 8.5):HBS-N (1:1). Buffer was changed to PBS/0.05% Tween 20 and biotinylated EphA2 was captured to a level of 500-1500 RU using a dilution of protein to 0.2 μM in buffer. A dilution series of the peptides was prepared in this buffer with a final DMSO concentration of 0.5% with a top peptide concentration was 50 or 100 nM and 6 further 2-fold dilutions. The SPR analysis was run at 25° C. at a flow rate of 90 μl/min with 60 seconds association and 900-1200 seconds dissociation. Data were corrected for DMSO excluded volume effects. All data were double-referenced for blank injections and reference surface using standard processing procedures and data processing and kinetic fitting were performed using Scrubber software, version 2.0c (BioLogic Software). Data were fitted using simple 1:1 binding model allowing for mass transport effects where appropriate.

Data set [4] concerns human PBMC co-cultured with 4T1-D02 (Nectin4+). The data set is described as follows: Human PBMC-4T1 co-culture (cytokine release) assay. Type of data set: cell-based. The note with it: anti-CD3 stimulated PBMC, 48 hours. In a few lines: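 Healthy-donor human PBMCs co-cultured 5:1 with murine Nectin-4-overexpressing 4T1-D02 cells, stimulated with 125 ng/ml soluble anti-CD3 (OKT3) plus test compounds. IL-2 and IFNγ in 48 h supernatants measured by HTRF and interpolated from standard curves; three donors, each in duplicate.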

Data set [5] can be described thus: Pharmacokinetics of CD137 bispecifics in SD rats. Type of data set: in vivo. The note with it: male, Sprague-Dawley (SD), SD Rat, 2 mg/kg IV, plasma. The protocol: Male SD Rats were dosed with 2 mg/kg of each Bicycle multimer formulated in 25 mM Histidine HCl, 10% sucrose pH 7. Serial bleeding (about 80 μL blood/time point) was performed via submadibular or saphenous vein at each time point. All blood samples were immediately transferred into prechilled microcentrifuge tubes containing 2 μL K2-EDTA (0.5M) as anti-coagulant and placed on wet ice. Blood samples were immediately processed for plasma by centrifugation at approximately 4° C., 3000 g. The precipitant including internal standard was immediately added into the plasma, mixed well and centrifuged at 12,000 rpm, 4° C. for 10 minutes. The supernatant was transferred into pre-labeled polypropylene microcentrifuge tubes, and then quick-frozen over dry ice. The samples were stored at […] or below as needed until analysis. 7.5 μL of the supernatant samples were directly injected for LC-MS/MS analysis using an Orbitrap Q Exactive in positive ion mode to determine the concentrations of Bicycle multimer. Plasma concentration versus time data were analyzed by non-compartmental approaches using the Phoenix WinNonlin 6.3 software program. C0, CI, Vdss, T½, AUC(0-last), AUC(0-inf), MRT(0-last), MRT(0-inf) and graphs of plasma concentration versus time profile were reported.

Data set [6] addresses T1, CD137. The data set is described as follows: CD137 reporter assay, co-culture with Nectin-4 tumour cells.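 Note: jurkat reporter cells co-cultured with tumour cells and test article for 6 h, luminescence signal relative to Jurkat plus tumour cells lacking test article.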 The class given is cell-based. Details: host or cells: Jurkat reporter cells. The settings on record: tumour target Nectin4, co-culture with H1376, 6 h.

T1 sequence (Q07011 24-255): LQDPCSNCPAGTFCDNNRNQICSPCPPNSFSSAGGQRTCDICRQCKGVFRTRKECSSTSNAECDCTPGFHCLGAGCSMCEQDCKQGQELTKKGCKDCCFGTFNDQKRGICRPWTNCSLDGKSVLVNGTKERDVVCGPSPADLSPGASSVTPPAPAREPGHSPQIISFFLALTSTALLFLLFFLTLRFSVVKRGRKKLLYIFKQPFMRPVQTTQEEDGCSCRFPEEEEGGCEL
Chain of human EphA2 protein (P29317 24-976): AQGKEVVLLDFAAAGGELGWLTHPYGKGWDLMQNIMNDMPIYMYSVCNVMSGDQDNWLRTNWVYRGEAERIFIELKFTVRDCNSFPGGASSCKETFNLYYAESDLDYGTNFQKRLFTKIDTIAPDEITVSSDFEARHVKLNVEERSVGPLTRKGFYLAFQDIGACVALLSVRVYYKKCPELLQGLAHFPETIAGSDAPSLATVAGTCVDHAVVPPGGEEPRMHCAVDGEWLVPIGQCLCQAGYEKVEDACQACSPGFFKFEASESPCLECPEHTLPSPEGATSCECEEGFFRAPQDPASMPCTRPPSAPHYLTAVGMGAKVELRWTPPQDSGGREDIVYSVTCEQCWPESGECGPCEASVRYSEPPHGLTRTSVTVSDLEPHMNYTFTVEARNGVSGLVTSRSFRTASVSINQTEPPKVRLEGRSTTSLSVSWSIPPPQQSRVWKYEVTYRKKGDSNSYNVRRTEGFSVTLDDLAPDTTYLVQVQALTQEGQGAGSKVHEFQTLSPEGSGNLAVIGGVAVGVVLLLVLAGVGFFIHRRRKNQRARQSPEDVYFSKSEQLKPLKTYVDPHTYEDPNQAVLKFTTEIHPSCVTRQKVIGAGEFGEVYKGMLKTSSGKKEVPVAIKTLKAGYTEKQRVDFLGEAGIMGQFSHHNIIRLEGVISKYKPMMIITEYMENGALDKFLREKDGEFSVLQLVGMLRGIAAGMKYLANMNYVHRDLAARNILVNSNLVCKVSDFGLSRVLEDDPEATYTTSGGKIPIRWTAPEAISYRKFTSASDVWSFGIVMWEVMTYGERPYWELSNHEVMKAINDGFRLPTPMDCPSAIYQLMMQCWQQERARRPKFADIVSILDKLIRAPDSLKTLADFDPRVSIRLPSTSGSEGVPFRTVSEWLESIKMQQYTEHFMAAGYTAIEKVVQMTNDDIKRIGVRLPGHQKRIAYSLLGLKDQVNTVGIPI

Consider `CCCC[C@@H]1NC(=O)[C@H](Cc2ccc(O)cc2)NC(=O)[C@@H]2CCCN2C(=O)[C@H](CC(=O)O)NC(=O)[C@H](C)NC(=O)[C@H](Cc2ccccc2)NC(=O)[C@@H]2CSCCC(=O)N3CN(CN(C3)C(=O)CCSC[C@@H](C(=O)N[C@@H](CNC(=O)CCc3cn(CCOCCOCCOCCOCCOCCOCCOCCOCCOCCOCCNC(=O)NCCC(=O)N(C)CC(=O)N(C)CC(=O)N(C)CC(=O)N(C)CC(=O)N(C)CC(=O)N(C)CC(=O)N(C)CC(=O)N(C)CC(=O)N(C)CC(=O)N(C)CC(=O)N[C@@H](C)C(=O)N[C@@H](CCCCNC(=N)N)C(=O)N[C@@H](CC(=O)O)C(=O)N[C@H]4CSCCC(=O)N5CN6CN(C5)C(=O)CCSC[C@H](NC(=O)[C@H](CC(C)C)NC(=O)[C@@H]5CCCN5C(=O)[C@H](CC(N)=O)NC(=O)[C@H](C(C)C)NC(=O)[C@H](CC(C)C)NC(=O)[C@@H]5C[C@@H](O)CN5C4=O)C(=O)N[C@@H](CC(C)C)C(=O)N[C@@H](Cc4c[nH]cn4)C(=O)N4CCC[C@H]4C(=O)N[C@H](CC(=O)O)C(=O)N[C@@H](Cc4c[nH]c5ccccc45)C(=O)N[C@@H](CCCCNC(=N)N)C(=O)N[C@H](C(N)=O)CSCCC6=O)nn3)C(N)=O)NC1=O)C(=O)CCSC[C@H](NC(=O)[C@H](C)NC(C)=O)C(=O)N[C@@H]([C@@H](C)CC)C(=O)N[C@@H](CCC(=O)O)C(=O)N[C@@H](CCC(=O)O)C(=O)NCC(=O)N[C@@H](CCC(N)=O)C(=O)N[C@@H](Cc1ccc(O)cc1)C(=O)N2` [BCY9647], for which, in data set [1], it took 7.2 nM to reach a half-maximal effect (EC50) and the “Fold Induction over Background” value was 24 fold. This compound gave a Kd in data set [2] of 206 nM. Besides, the affinity in data set [3], expressed as Kd, was 1.69 nM.
As for `CCCC[C@@H]1NC(=O)[C@H](Cc2ccc(O)cc2)NC(=O)[C@@H]2CCCN2C(=O)[C@H](CC(=O)O)NC(=O)[C@H](C)NC(=O)[C@H](Cc2ccccc2)NC(=O)[C@@H]2CSCCC(=O)N3CN(CN(C3)C(=O)CCSC[C@@H](C(=O)N[C@@H](CNC(=O)CCOCCOCCOCCOCCOCCOCCOCCOCCOCCOCCOCCOCCn3cc(CCC(=O)NCCC(=O)N(C)CC(=O)N(C)CC(=O)N(C)CC(=O)N(C)CC(=O)N(C)CC(=O)N(C)CC(=O)N(C)CC(=O)N(C)CC(=O)N(C)CC(=O)N(C)CC(=O)N[C@H]4CSCCC(=O)N5CN6CN(C5)C(=O)CCSC[C@H](NC(=O)[C@@H](CC(=O)O)NC(=O)[C@H](Cc5cccc7ccccc57)NC(=O)[C@@H]5CCCN5C4=O)C(=O)N[C@@H](CCSC)C(=O)N[C@@H](CCCCNC(=N)N)C(=O)N[C@@H](CC(=O)O)C(=O)N[C@@H](Cc4c[nH]c5ccccc45)C(=O)N[C@@H](CO)C(=O)N[C@@H]([C@@H](C)O)C(=O)N4CCC[C@H]4C(=O)N4C[C@H](O)C[C@H]4C(=O)N[C@@H](Cc4c[nH]c5ccccc45)C(=O)N[C@H](C(N)=O)CSCCC6=O)nn3)C(N)=O)NC1=O)C(=O)CCSC[C@H](NC(C)=O)C(=O)N[C@@H](CC(C)(C)C)C(=O)N1CCC[C@H]1C(=O)N[C@@H](CCC(=O)O)C(=O)N[C@H](C)C(=O)N1CCC[C@H]1C(=O)N[C@@H](Cc1ccc(O)cc1)C(=O)N2` [BCY10000], the EC50 in data set [4] (IFN-γ secretion) was found to be 0.21 nM. In addition, the “max IFN-y” value in data set [4] came out at 19642 pg/mL. The clearance in data set [5] (read-out: Clp) turned out to be 16.1 mL/min/kg. Besides, in data set [5] (read-out: T½ (converted)), the half-life was 21.4 min. Further, the Vd in data set [5] (read-out: Vdss) is 0.395 L/kg. For the same compound, the “Fold Induction over Background” value in data set [6] was 61 fold.
